# Molecular target: T1, MAGL (Homo sapiens, UniProt Q99685)
# T1 sequence (Q99685 1-303): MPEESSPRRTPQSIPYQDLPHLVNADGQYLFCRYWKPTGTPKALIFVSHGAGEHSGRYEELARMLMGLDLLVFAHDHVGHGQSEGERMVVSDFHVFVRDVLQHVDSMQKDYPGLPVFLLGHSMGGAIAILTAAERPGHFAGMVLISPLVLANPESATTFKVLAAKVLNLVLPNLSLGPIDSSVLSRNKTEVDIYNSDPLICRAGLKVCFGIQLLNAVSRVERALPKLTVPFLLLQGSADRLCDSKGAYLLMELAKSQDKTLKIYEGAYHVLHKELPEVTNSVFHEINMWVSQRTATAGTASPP
# Test: 2-AG assay (MAGL inhibitory activity, hydrolysis of 2-arachidonoylglycerol to arachidonic acid followed by mass spectrometry)
# Assay type: biochemical
# Conditions: 8 μM 2-arachidonoylglycerol, 15 min pre-incubation, 30 min incubation at RT, RapidFire MS readout
# How it was run: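 Human MAGL ([…] final) pre-incubated 15 min at RT with compound in 50 mM TRIS, 1 mM EDTA, 0.01% Tween-20, 2.5% DMSO; 8 μM 2-AG then added for 30 min at RT. Acetonitrile quench with d8-arachidonic acid; arachidonic acid measured by RapidFire SPE–MS/MS, activity from arachidonic acid/d8 ratio.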
row,IC50,Compound
1,0.98 nM,"O=C(N1CC2(CC(Cc3ccc(C(F)(F)F)nc3)C2)C1)N1CC2(CC(n3cnc(C4(O)CC4)n3)C2)C1 [Example 495, [6-[3-(1-hydroxycyclopropyl)-1,2,4-triazol-1-yl]-2-azaspiro[3.3]heptan-2-yl]-[6-[[6-(trifluoromethyl)-3-pyridyl]methyl]-2-azaspiro[3.3]heptan-2-yl]methanone]"
2,9.34 nM,"O=C(N1CC(c2ccc(N3CC(C(F)(F)F)C3)nc2)C1)N1CC2(CC(n3cnc(C4(O)CC4)n3)C2)C1 [Example 496, [6-[3-(1-hydroxycyclopropyl)-1,2,4-triazol-1-yl]-2-azaspiro[3.3]heptan-2-yl]-[3-[6-[3-(trifluoromethyl)azetidin-1-yl]-3-pyridyl]azetidin-1-yl]methanone]"
3,84 nM,"O=C(N1CC2(CC(n3cnc(C4(O)CC4)n3)C2)C1)N1CC2(C1)CN(S(=O)(=O)c1cccc(OC(F)(F)F)c1)C2 [Example 497, [6-[3-(1-hydroxycyclopropyl)-1,2,4-triazol-1-yl]-2-azaspiro[3.3]heptan-2-yl]-[2-[3-(trifluoromethoxy)phenyl]sulfonyl-2,6-diazaspiro[3.3]heptan-6-yl]methanone]"
4,1.69 nM,"O=C(N1CC(OCc2cccc(S(=O)(=O)C(F)(F)F)c2)C1)N1CC2(CC(n3cnc(C4CC4)n3)C2)C1 [Example 498, [6-(3-cyclopropyl-1,2,4-triazol-1-yl)-2-azaspiro[3.3]heptan-2-yl]-[3-[[3-(trifluoromethylsulfonyl)phenyl]methoxy]azetidin-1-yl]methanone]"
5,4.38 nM,"O=C(N1CC(OCc2ccc(S(=O)(=O)C(F)(F)F)cc2)C1)N1CC2(CC(n3cnc(C4CC4)n3)C2)C1 [Example 499, [6-(3-cyclopropyl-1,2,4-triazol-1-yl)-2-azaspiro[3.3]heptan-2-yl]-[3-[[4-(trifluoromethylsulfonyl)phenyl]methoxy]azetidin-1-yl]methanone]"
6,39.6 nM,"CS(=O)(=O)c1ccc(CN2CC3(C2)CN(C(=O)N2CC4(CC(n5cnc(C6CC6)n5)C4)C2)C3)cc1 [Example 500, [6-(3-cyclopropyl-1,2,4-triazol-1-yl)-2-azaspiro[3.3]heptan-2-yl]-[6-[(4-methylsulfonylphenyl)methyl]-2,6-diazaspiro[3.3]heptan-2-yl]methanone]"
7,6.74 nM,"CS(=O)(=O)c1cccc(CN2CC3(C2)CN(C(=O)N2CC4(CC(n5cnc(C6CC6)n5)C4)C2)C3)c1 [Example 501, [6-(3-cyclopropyl-1,2,4-triazol-1-yl)-2-azaspiro[3.3]heptan-2-yl]-[6-[(3-methylsulfonylphenyl)methyl]-2,6-diazaspiro[3.3]heptan-2-yl]methanone]"
8,12.1 nM,"CS(=O)(=O)c1ccccc1CN1CC2(C1)CN(C(=O)N1CC3(CC(n4cnc(C5CC5)n4)C3)C1)C2 [Example 502, [6-(3-cyclopropyl-1,2,4-triazol-1-yl)-2-azaspiro[3.3]heptan-2-yl]-[6-[(2-methylsulfonylphenyl)methyl]-2,6-diazaspiro[3.3]heptan-2-yl]methanone]"
9,1.53 nM,"NC(=O)C1CC(F)(F)CCN1c1ccc(C2CN(C(=O)N3CC4(CC(n5cnc(C6CC6)n5)C4)C3)C2)cc1 (stereo not shown) [Example 503, 1-[4-[1-[6-(3-cyclopropyl-1,2,4-triazol-1-yl)-2-azaspiro[3.3]heptane-2-carbonyl]azetidin-3-yl]phenyl]-4,4-difluoro-piperidine-2-carboxamide]"
10,13.9 nM,"CC1(O)CN(c2ccc(C3CN(C(=O)N4CC5(CC(n6cnc(C7CC7)n6)C5)C4)C3)cn2)C1 [Example 504, [6-(3-cyclopropyl-1,2,4-triazol-1-yl)-2-azaspiro[3.3]heptan-2-yl]-[3-[6-(3-hydroxy-3-methyl-azetidin-1-yl)-3-pyridyl]azetidin-1-yl]methanone]"
11,32.3 nM,"O=C(N1CC(c2ccc(NC3CCS(=O)(=O)C3)nc2)C1)N1CC2(CC(n3cnc(C4CC4)n3)C2)C1 (stereo not shown) [Example 505, [6-(3-cyclopropyl-1,2,4-triazol-1-yl)-2-azaspiro[3.3]heptan-2-yl]-[3-[6-[(1,1-dioxothiolan-3-yl)amino]-3-pyridyl]azetidin-1-yl]methanone]"
12,75.6 nM,"O=C(N1CCC(Oc2cccc(F)c2)CC1)N1CC2(CC(n3cnc(C4CC4)n3)C2)C1 [Example 506, [6-(3-cyclopropyl-1,2,4-triazol-1-yl)-2-azaspiro[3.3]heptan-2-yl]-[4-(3-fluorophenoxy)-1-piperidyl]methanone]"
13,0.51 nM,"O=C(N1CC(c2ccc(C3CCC3)cc2)C1)N1CC2(CC(n3cnc(C4CC4)n3)C2)C1 [Example 507, [3-(4-cyclobutylphenyl)azetidin-1-yl]-[6-(3-cyclopropyl-1,2,4-triazol-1-yl)-2-azaspiro[3.3]heptan-2-yl]methanone]"
14,651 nM,"Cc1cccc(F)c1CCC1CN(C(=O)N2CC3(CC(n4cnc(C5CC5)n4)C3)C2)C1 [Example 508, [6-(3-cyclopropyl-1,2,4-triazol-1-yl)-2-azaspiro[3.3]heptan-2-yl]-[3-[2-(2-fluoro-6-methyl-phenyl)ethyl]azetidin-1-yl]methanone]"
15,40.9 nM,"O=C(N1CC(/C=C/c2cccc(F)c2)C1)N1CC2(CC(n3cnc(C4CC4)n3)C2)C1 [Example 509, [6-(3-cyclopropyl-1,2,4-triazol-1-yl)-2-azaspiro[3.3]heptan-2-yl]-[3-[(E)-2-(3-fluorophenyl)vinyl]azetidin-1-yl]methanone]"
16,4.57 nM,"O=C(N1CC2(CC(n3cnc(C4CC4)n3)C2)C1)N1CC2(CC(n3cnc(C4CC4)n3)C2)C1 [Example 510, bis[6-(3-cyclopropyl-1,2,4-triazol-1-yl)-2-azaspiro[3.3]heptan-2-yl]methanone]"
17,168 nM,"O=C(N1CC2(CCC(Cc3ccc(OC(F)F)nc3)CC2)C1)N1CC2(CC(c3cncc(F)c3)C2)C1 [Example 511, [7-[[6-(difluoromethoxy)-3-pyridyl]methyl]-2-azaspiro[3.5]nonan-2-yl]-[6-(5-fluoro-3-pyridyl)-2-azaspiro[3.3]heptan-2-yl]methanone]"
18,356 nM,O=C(N1CC(Oc2ccc(C(F)(F)F)c(C3CC3)c2)C1)N1CC2(CC(c3cncc(F)c3)C2)C1 [Example 512]
19,2370 nM,"O=C(N1CC(OCc2ccc(F)cc2Cl)C1)N1CC2(CC(c3cncc(F)c3)C2)C1 [Example 513, [3-[(2-chloro-4-fluoro-phenyl)methoxy]azetidin-1-yl]-[6-(5-fluoro-3-pyridyl)-2-azaspiro[3.3]heptan-2-yl]methanone]"
20,88.6 nM,"O=C(N1CC(NCc2ccc(C(F)(F)F)cc2Cl)C1)N1CC2(CC(c3cncc(F)c3)C2)C1 [Example 514, [3-[[2-chloro-4-(trifluoromethyl)phenyl]methylamino]azetidin-1-yl]-[6-(5-fluoro-3-pyridyl)-2-azaspiro[3.3]heptan-2-yl]methanone]"
21,95.8 nM,"O=C(N1CC2(CC(Cc3ccc(C(F)(F)F)nc3)C2)C1)N1CC2(CC(c3cncc(F)c3)C2)C1 [Example 515, [6-(5-fluoro-3-pyridyl)-2-azaspiro[3.3]heptan-2-yl]-[6-[[6-(trifluoromethyl)-3-pyridyl]methyl]-2-azaspiro[3.3]heptan-2-yl]methanone]"
22,699 nM,"O=C(N1CC2(CCC(Cc3ccc(F)cn3)CC2)C1)N1CC2(CC(c3ccc(C(F)(F)F)nc3)C2)C1 [Example 516, [7-[(5-fluoro-2-pyridyl)methyl]-2-azaspiro[3.5]nonan-2-yl]-[6-[6-(trifluoromethyl)-3-pyridyl]-2-azaspiro[3.3]heptan-2-yl]methanone]"
23,299 nM,"O=C(N1CC2(CCC(Cc3ccc(Cl)cn3)CC2)C1)N1CC2(CC(c3ccc(C(F)(F)F)nc3)C2)C1 [Example 517, [7-[(5-chloro-2-pyridyl)methyl]-2-azaspiro[3.5]nonan-2-yl]-[6-[6-(trifluoromethyl)-3-pyridyl]-2-azaspiro[3.3]heptan-2-yl]methanone]"
24,610 nM,"COc1cc(C(F)(F)F)ccc1CNC1CN(C(=O)N2CC3(CC(c4ccc(C(F)(F)F)nc4)C3)C2)C1 [Example 518, [3-[[2-methoxy-4-(trifluoromethyl)phenyl]methylamino]azetidin-1-yl]-[6-[6-(trifluoromethyl)-3-pyridyl]-2-azaspiro[3.3]heptan-2-yl]methanone]"
25,154 nM,"O=C(N1CC2(CC(Cc3cnc(C(F)(F)F)cn3)C2)C1)N1CC2(CC(c3ccc(C(F)(F)F)nc3)C2)C1 [Example 519, [6-[[5-(trifluoromethyl)pyrazin-2-yl]methyl]-2-azaspiro[3.3]heptan-2-yl]-[6-[6-(trifluoromethyl)-3-pyridyl]-2-azaspiro[3.3]heptan-2-yl]methanone]"
26,544 nM,"O=C(N1CC(OCc2ccc(S(=O)(=O)C(F)(F)F)cc2)C1)N1CC2(CC(c3ccc(C(F)(F)F)nc3)C2)C1 [Example 520, [6-[6-(trifluoromethyl)-3-pyridyl]-2-azaspiro[3.3]heptan-2-yl]-[3-[[4-(trifluoromethylsulfonyl)phenyl]methoxy]azetidin-1-yl]methanone]"
27,379 nM,"O=C(N1CC2(CCC(Cc3ccc(OC(F)F)nc3)CC2)C1)N1CC2(CC(c3ccc(C(F)(F)F)nc3)C2)C1 [Example 521, [7-[[6-(difluoromethoxy)-3-pyridyl]methyl]-2-azaspiro[3.5]nonan-2-yl]-[6-[6-(trifluoromethyl)-3-pyridyl]-2-azaspiro[3.3]heptan-2-yl]methanone]"
28,849 nM,"O=C(N1CC2(CC(c3ccc(C(F)(F)F)nc3)C2)C1)N1CC2(CC(c3ccc(C(F)(F)F)nc3)C2)C1 [Example 522, bis[6-[6-(trifluoromethyl)-3-pyridyl]-2-azaspiro[3.3]heptan-2-yl]methanone]"

# Source: patent US20240199587A1, “HETEROCYCLIC COMPOUNDS” (Hoffmann-La Roche Inc., priority 2021, published 2024)
